Like-named read-outs stand apart in the source and are kept apart here.
Experiments:
[1] = test system: gout patients with hyperuricemia; assay type: in vivo; settings: for Mean absolute sUA reduction / Mean sUA % change / Mean sUA level: ± SE; for % Response rate for sUA falling below 4 mg/dL / % Response rate for sUA falling below 5 mg/dL / % Response rate for sUA falling below 6 mg/dL: allopurinol 300 mg
Experimental: Study Objectives • To measure the effect of drug 1, alone and in combination with allopurinol, on serum urate concentration. • To evaluate the safety and tolerability of drug 1 in combination with allopurinol.
The study is open-label in gout patients with hyperuricemia, involving 2 panels of ˜10-12 patients per panel. The panels may be enrolled simultaneously.
Panel 1 receives a once-daily dose of allopurinol 300 mg alone for 7 days and for an additional 7 days in combination with a once-daily dose of drug 1 400 mg. Patients then receive 7 days of a once-daily dose of drug 1 400 mg alone. Panel 2 follows the same regimen as panel 1, at doses of allopurinol 300 mg and drug 1 600 mg.
• Day −10 to Day 28: colchicine prophylaxis; or • Day −7 to Day 28: colchicine prophylaxis (for patients not washing out from ULT) • Days 1-7: allopurinol 300 mg qd • Days 8-14: drug 1 400 mg qd+allopurinol 300 mg qd • Days 15-21: drug 1 400 mg qd
• Day −10 to Day 28: colchicine prophylaxis; or • Day −7 to Day 28: colchicine prophylaxis (for patients not washing out from ULT) • Days 1-7: allopurinol 300 mg qd • Days 8-14: drug 1 600 mg qd+allopurinol 300 mg qd • Days 15-21: drug 1 600 mg qd
Gout patients on a urate lowering therapy (ULT), have previously taken a ULT or who have never taken a ULT are eligible to participate. Screening procedures to determine patient eligibility are performed within approximately 14 days of the first dose of study drug (Day 1). Subjects currently on ULT wash-out for at least 10 days before Day 1, and begin colchicine (Colcry® 0.6 mg qd, URL Pharma) as prophylaxis for gout flares at the beginning of the wash-out period. Subjects not on ULT begin colchicine administration at least 7 days prior to Day 1. Patients intolerant of colchicine during the screening period are considered screen failures and not enrolled. Prophylactic administration of colchicine continues for 7 days after the last dose of study medication.
Eligible patients report to the study center early morning on Days −1, 7, 14, and 21 (or the afternoon/evening the day before). Serial blood samples are collected on Days −1, 7, 14, and 21. Study medication is administered to each patient and taken orally every morning with approximately 240 mL of water, at approximately the same time of the morning every day, and approximately 30 minutes after finishing a full breakfast (approximately 650 Kcal and 35% fat); the breakfast is standardized on Days −1 to 21.
Inclusion Criteria • Patient is male or post-menopausal or surgically sterile female. • Patient is 18-80 years of age. • Patient meets one or more criteria for the diagnosis of gout as per the American Rheumatism Association (ARA) Criteria for the Classification of Acute Arthritis of Primary Gout (Appendix B). • Patient sUA≥8 mg/dL at screening. • Patient willing and able to give informed consent and adhere to visit/protocol schedules • No clinically relevant abnormalities in blood pressure (BP), heart rate (HR), body temperature and respiratory rate as per Investigator's judgment.
Subject urate serum levels are recorded, and any safety concerns assessed (by adverse events, clinical laboratory test results, vital signs, 12-lead ECGs, and physical examinations). […] Urate serum concentrations are evaluated for treatment- and/or time-dependent changes relative to baseline (Day −1), and may be expressed both in standard units (mg/dL) and as changes from baseline (e.g., percent change, absolute change, maximal change, and time or day of maximal change).
Drug 1 was tested according to the protocol described in Example 21.
Serum urate levels were measured and absolute and % reduction levels from baseline calculated, for Allopurinol monotherapy, Drug 1 monotherapy and Allopurinol plus Drug 1 combination.

[2] = biological target: T1, URAT1 (Homo sapiens, UniProt Q96S37); settings: in vitro; cited from earlier work
T1 sequence (Q96S37 1-553): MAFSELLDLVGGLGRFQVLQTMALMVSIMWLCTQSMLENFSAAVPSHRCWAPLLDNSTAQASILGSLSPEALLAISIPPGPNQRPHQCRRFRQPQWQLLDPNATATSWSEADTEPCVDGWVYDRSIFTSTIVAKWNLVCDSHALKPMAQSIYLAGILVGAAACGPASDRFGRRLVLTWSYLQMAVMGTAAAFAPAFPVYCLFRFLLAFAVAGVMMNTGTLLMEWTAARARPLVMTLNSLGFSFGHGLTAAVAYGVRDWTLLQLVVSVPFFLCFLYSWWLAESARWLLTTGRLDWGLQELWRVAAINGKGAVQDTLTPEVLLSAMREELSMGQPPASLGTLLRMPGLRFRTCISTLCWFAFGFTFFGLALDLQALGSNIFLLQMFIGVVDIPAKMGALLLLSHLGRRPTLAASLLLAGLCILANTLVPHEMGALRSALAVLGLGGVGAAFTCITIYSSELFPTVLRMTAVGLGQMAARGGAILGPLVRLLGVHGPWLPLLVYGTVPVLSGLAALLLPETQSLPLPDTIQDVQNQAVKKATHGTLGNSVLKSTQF

[3] = in clinical studies; cited from earlier work
[4] = biological target: xanthine oxidase (Homo sapiens, UniProt P47989); settings: cited from earlier work
xanthine oxidase, sequence (P47989 whole entry, species assumed): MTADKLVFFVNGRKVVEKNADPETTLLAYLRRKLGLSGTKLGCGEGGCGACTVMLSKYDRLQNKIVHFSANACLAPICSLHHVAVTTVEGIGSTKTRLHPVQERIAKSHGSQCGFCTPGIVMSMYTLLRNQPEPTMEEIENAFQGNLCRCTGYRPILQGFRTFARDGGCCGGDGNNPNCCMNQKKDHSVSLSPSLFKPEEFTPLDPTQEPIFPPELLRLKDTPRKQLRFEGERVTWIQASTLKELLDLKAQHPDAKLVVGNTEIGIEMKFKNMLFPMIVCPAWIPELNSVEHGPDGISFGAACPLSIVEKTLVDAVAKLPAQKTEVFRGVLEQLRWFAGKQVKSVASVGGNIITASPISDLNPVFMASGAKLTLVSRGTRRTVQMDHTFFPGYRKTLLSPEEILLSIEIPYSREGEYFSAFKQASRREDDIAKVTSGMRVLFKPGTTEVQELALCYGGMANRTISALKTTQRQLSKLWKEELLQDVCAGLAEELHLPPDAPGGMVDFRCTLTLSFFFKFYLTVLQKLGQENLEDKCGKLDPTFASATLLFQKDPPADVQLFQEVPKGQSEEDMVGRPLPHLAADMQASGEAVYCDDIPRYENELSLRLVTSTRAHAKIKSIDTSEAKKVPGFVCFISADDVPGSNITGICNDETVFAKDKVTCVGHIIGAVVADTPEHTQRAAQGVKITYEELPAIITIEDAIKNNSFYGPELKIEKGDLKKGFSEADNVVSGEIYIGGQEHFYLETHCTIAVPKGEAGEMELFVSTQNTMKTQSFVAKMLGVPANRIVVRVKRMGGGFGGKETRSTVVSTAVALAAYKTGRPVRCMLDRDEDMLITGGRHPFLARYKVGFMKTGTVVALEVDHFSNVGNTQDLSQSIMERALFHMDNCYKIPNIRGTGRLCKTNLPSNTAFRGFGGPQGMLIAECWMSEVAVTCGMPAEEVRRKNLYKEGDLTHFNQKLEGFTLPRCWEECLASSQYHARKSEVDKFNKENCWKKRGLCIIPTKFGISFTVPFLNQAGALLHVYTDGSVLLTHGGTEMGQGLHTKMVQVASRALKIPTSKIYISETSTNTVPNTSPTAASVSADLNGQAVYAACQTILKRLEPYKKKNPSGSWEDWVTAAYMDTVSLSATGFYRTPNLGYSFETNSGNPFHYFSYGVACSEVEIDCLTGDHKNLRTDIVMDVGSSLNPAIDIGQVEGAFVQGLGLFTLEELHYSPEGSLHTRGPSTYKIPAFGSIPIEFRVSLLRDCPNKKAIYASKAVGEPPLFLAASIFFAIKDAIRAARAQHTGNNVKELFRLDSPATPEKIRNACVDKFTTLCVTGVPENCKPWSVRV

[5] = Drug 1 400 mg panel: allopurinol 300 mg qd days 1-7, combination days 8-14, drug 1 400 mg qd alone days 15-21
[6] = Drug 1 600 mg panel: allopurinol 300 mg qd days 1-7, combination days 8-14, drug 1 600 mg qd alone days 15-21

O=C(O)CSc1nnc(Br)n1-c1ccc(C2CC2)c2ccccc12 [Drug 1, Sodium 2-(5-bromo-4-(4-cyclopropylnaphthalen-1-yl)-4H-1,2,4-triazol-3-ylthio)acetate]
Mean absolute sUA reduction [1, 5]: -3.0 ± 0.46 mg/dL | Mean sUA % change [1, 5]: −30.2 ± 3.7% | Mean sUA level [1, 5]: 6.6 ± 0.22 mg/dL | % Response rate for sUA falling below 4 mg/dL ([1]; Drug 1 400 mg panel): 0% | % Response rate for sUA falling below 5 mg/dL ([1]; Drug 1 400 mg panel): 0% | % Response rate for sUA falling below 6 mg/dL ([1]; Drug 1 400 mg panel): 20% | Mean absolute sUA reduction [1, 6]: -3.3 ± 0.23 mg/dL | Mean sUA % change [1, 6]: −37.2 ± 2.6% | Mean sUA level [1, 6]: 5.7 ± 0.41 mg/dL | % Response rate for sUA falling below 4 mg/dL ([1]; Drug 1 600 mg panel): 0% | % Response rate for sUA falling below 5 mg/dL ([1]; Drug 1 600 mg panel): 33% | % Response rate for sUA falling below 6 mg/dL ([1]; Drug 1 600 mg panel): 67% | Effect on the URAT1-mediated uptake of uric acid [2]: concentration-dependent inhibitory effect | Route of excretion [3]: preferentially excreted through the kidney, reaching high concentrations in urine | Inhibition of xanthine oxidase [4]: does not significantly inhibit
